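Compound exposure: 48 hours, 5 concentrations, 96-well plates. Here, GI50 denotes the concentration required for 50% inhibition of growth. Definition used: TGI = concentration required for complete inhibition of growth.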
Columns and labels:
Assay in all cases: growth of human tumour cells (NCI), 48 h
BT-549 breast = tested on: BT-549 breast
LOX IMVI melanoma = tested on: LOX IMVI melanoma
M14 melanoma = tested on: M14 melanoma
MDA-MB-231 breast = tested on: MDA-MB-231 breast
MOLT-4 leukemia = tested on: MOLT-4 leukemia
SW-620 colon = tested on: SW-620 colon
UO-31 renal = tested on: UO-31 renal
CAKI-1 renal = tested on: CAKI-1 renal
MDA-MB-435 = tested on: MDA-MB-435
SF-295 CNS = tested on: SF-295 CNS

Row | Structure (SMILES) | GI50 (BT-549 breast) [µM] | TGI (BT-549 breast) [µM] | GI50 (LOX IMVI melanoma) [µM] | TGI (LOX IMVI melanoma) [µM] | GI50 (M14 melanoma) [µM] | TGI (M14 melanoma) [µM] | GI50 (MDA-MB-231 breast) [µM] | TGI (MDA-MB-231 breast) [µM] | GI50 (MOLT-4 leukemia) [µM] | TGI (MOLT-4 leukemia) [µM] | GI50 (SW-620 colon) [µM] | TGI (SW-620 colon) [µM] | GI50 (UO-31 renal) [µM] | TGI (UO-31 renal) [µM] | GI50 (CAKI-1 renal) [µM] | TGI (CAKI-1 renal) [µM] | GI50 (MDA-MB-435) [µM] | TGI (MDA-MB-435) [µM] | TGI (SF-295 CNS) [µM] | GI50 (SF-295 CNS) [µM]
1 | COc1ccc(Cn2nc(-c3cc(OC)c(OC)c(OC)c3)c3c2CCc2cnoc2-3)cc1OC | 5.62 | > 100 | 3.02 | > 100 | 4.08 | 47.4 | 8 | > 100 | 3.76 | > 100 | 3.98 | > 100 | 4.17 | > 100 | – | – | – | – | – | –
2 | N#Cc1ncc(/N=C/c2ccc(N(CCCl)CCCl)cc2)s1 | 29.6 | > 100 | 6.89 | > 100 | 35.2 | > 100 | 50.2 | > 100 | 10.6 | > 100 | 9.69 | > 100 | 6.26 | 30 | 2.22 | 8.18 | 28.4 | > 100 | – | –
3 | NC(=O)OCC(COc1ccc(Cl)cc1)OC(=O)c1ccccc1Cl (centres undefined) | – | – | – | 27.9 | – | 32.8 | – | – | – | 56.6 | – | 36.4 | – | 51.5 | – | 74.8 | – | – | 62.2 | –
4 | COc1cc(/C=C\c2ccccn2)cc(OC)c1OC | – | – | – | > 100 | – | > 100 | – | – | – | > 100 | – | > 100 | – | > 100 | – | > 100 | – | – | > 100 | –
5 | CCOP(=O)(OCC)C1CCCCOC1=O (centres undefined) | – | – | – | 40 | – | > 100 | – | – | – | > 100 | – | > 100 | – | > 100 | – | > 100 | – | – | > 100 | –
6 | COc1cccc(OC(=O)c2ccccc2Nc2ccnc(C(F)(F)F)c2)c1 | 8.11 | 55 | 1.07 | 10.4 | 1.36 | 4.04 | 2.12 | 16.9 | 0.692 | 4.29 | 4.37 | > 100 | 61.2 | > 100 | 2.68 | 80.2 | – | – | > 100 | 2.51
7 | C=C1C(=O)OC2CC3(C)C=CC(=O)C(=C)C3CC12 (centres undefined) | – | – | – | 1.86 | – | 2.86 | – | – | – | 3.52 | – | 2.36 | – | 3.13 | – | 2.77 | – | – | 26.8 | –
8 | Nc1cc(=O)[nH]c(SC2=NC(N)CC(O)C2)n1 (centres undefined) | – | – | – | > 100 | – | > 100 | – | – | – | > 100 | – | > 100 | – | > 100 | – | > 100 | – | – | > 100 | –
9 | CC1CC2C(=O)NC(=O)C2c2[nH]c3ccccc3c21 (centres undefined) | – | – | – | > 100 | – | > 100 | – | – | – | > 100 | – | > 100 | – | > 100 | – | > 100 | – | – | > 100 | –
10 | Cc1ccc2c(c1)C1(C)OC(CC(N)C1O)O2 (centres undefined) | – | – | – | > 100 | – | > 100 | – | – | – | > 100 | – | > 100 | – | > 100 | – | – | – | – | > 100 | –
11 | COC12C=CC(CC1)c1c(O)ccc(O)c12 (centres undefined) | – | – | – | – | – | > 100 | – | – | – | > 79 | – | > 63.8 | – | > 100 | – | > 100 | – | – | > 100 | –
12 | COC(=O)CCC(=O)N1Cc2cc(C)ccc2N(C(=O)CCC(=O)OC)Cc2cc(C)ccc21 | – | – | – | > 100 | – | > 100 | – | – | – | > 100 | – | > 100 | – | > 100 | – | > 100 | – | – | > 100 | –
13 | CN(C)CCNC(=O)c1cccn2c(=O)c3cc4ccccc4cc3nc12 | 0.68 | 2.83 | 0.0624 | 0.286 | 0.222 | 1.21 | 0.316 | 8.84 | 0.0571 | 8.23 | 0.0515 | 2.08 | – | – | 0.0711 | 0.593 | 0.181 | 1.19 | 1.1 | 0.0679
14 | CC1Oc2cc3c(-c4c(O)cc(O)c5c(O)c6c(cc45)OC(C)C(C)C6=O)c(O)cc(O)c3c(O)c2C(=O)C1C (centres undefined) | – | 0.775 | – | – | – | 1.12 | – | 0.378 | – | 0.731 | – | 1.52 | – | 1.54 | – | 2.36 | – | 1.16 | 0.49 | –
15 | Cc1cc(N2CCCCC2)nc(N(CCNc2ccnc3cc(Cl)ccc23)Cc2ccco2)n1 | 1.82 | 3.5 | 1.66 | 3.09 | 1.82 | 3.61 | 1.83 | 3.53 | 2.29 | 5.31 | 1.53 | 3.08 | 1.41 | 2.77 | – | – | 1.8 | 3.52 | 3.12 | 1.51
16 | CN(C)CCCNC(=O)c1cc(NC(=O)CCNS(=O)(=O)c2ccc3c(c2)C(=O)c2ccccc2C3=O)cn1C | > 100 | > 100 | – | – | > 100 | > 100 | > 100 | > 100 | > 100 | > 100 | > 100 | > 100 | > 100 | > 100 | > 100 | > 100 | > 100 | > 100 | > 100 | > 100
17 | C=C1C(=O)O[C@H]2C[C@@H](C)[C@@H]3CC(=O)OC[C@@]3(C)CC12 (some centres undefined) | – | – | – | 90.5 | – | 31.6 | – | – | – | 57.3 | – | 35.1 | – | > 100 | – | 51 | – | – | 76.2 | –
18 | O=C(CC1Sc2ccccc2NC1=O)Nc1cc(Cl)ccc1Cl (centres undefined) | – | – | – | > 100 | – | > 100 | – | – | – | > 100 | – | > 100 | – | > 100 | – | > 100 | – | – | > 100 | –
19 | O=C(O)[C@@H]1C2CC([C@@H]1C(=O)O)[C@H](N1C(=O)CCC1=O)[C@@H]2Br (some centres undefined) | – | > 100 | – | > 100 | – | > 100 | – | > 100 | – | > 100 | – | > 100 | – | > 100 | – | – | – | > 100 | > 100 | –
20 | COC(=O)c1[nH]c(=S)[nH]c(=O)c1-c1ccc(Cl)cc1 | – | – | – | > 50 | – | > 50 | – | – | – | > 50 | – | > 50 | – | > 50 | – | > 50 | – | – | > 50 | –

From PubChem BioAssay (NCI)
